From PubChem BioAssay (NCI) come the findings set out here.

“And” between values parts separate entries of the source, which are not always exact repeats. Equal entries are not always repeated.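 Cultured in 96-well plates, cells were exposed to test compound for 48 hours across five concentrations. Abbreviation: GI50, concentration required for 50% inhibition of growth. TGI denotes the concentration required for complete inhibition of growth.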 Where only a bound is given, the exact number is not on record here.

Test systems include SNB-75 CNS; HOP-62 NSCLC; SF-539 CNS; ACHN renal; SN12C renal; M14 melanoma; UACC-62 melanoma; OVCAR-3 ovarian; IGROV1 ovarian; NCI-H226 lung.
Common to all, as to assay: NCI tumour cell line growth inhibition, 48 h

On to `c1ccc(SC2(Sc3ccccc3)CCCC2)cc1`, for which the TGI in the assay with SNB-75 CNS, in the assay on HOP-62 NSCLC, in the assay with SF-539 CNS, in the assay on ACHN renal, in the assay with SN12C renal and in the assay with M14 melanoma was > 100 µM each time. Moreover, the TGI in the assay with UACC-62 melanoma and in the assay on OVCAR-3 ovarian was > 100 µM in each case.
With `CCCCCCCCCCCOC(=S)NC(C)C`, the TGI in the assay on SNB-75 CNS turned out to be 62.8 µM; with HOP-62 NSCLC, 36.6 µM; in the assay with SF-539 CNS it was 35.4 µM; in the assay with ACHN renal, 35.9 µM; in the assay on SN12C renal, 30.1 µM; in the assay on IGROV1 ovarian, 49.9 µM. For the same compound, the TGI is 60.6 µM in the assay with M14 melanoma and 31.1 µM with UACC-62 melanoma.
`CC1=NN(C(=O)c2ccccc2O)C(=O)/C1=C/c1ccc([N+](=O)[O-])cc1`: the GI50 was 0.0532 µM in the assay with SNB-75 CNS; 0.476 µM in the assay with SF-539 CNS; 0.545 µM with ACHN renal; 2.06 µM in the assay on SN12C renal; 0.23 µM in the assay with NCI-H226 lung; 0.44 µM with IGROV1 ovarian. For the same compound, the GI50 in the assay with M14 melanoma is 3.01 µM; in the assay on OVCAR-3 ovarian, 1.98 µM. Besides, the TGI is > 100 µM with SNB-75 CNS; 2.57 µM and 2.52 µM in the assay with SF-539 CNS; > 100 µM with ACHN renal; > 26.5 µM in the assay on SN12C renal; 7.93 µM and 25.1 µM in the assay on NCI-H226 lung; 40.7 µM in the assay on M14 melanoma. Also, the TGI was 2.16 µM in the assay on UACC-62 melanoma; 7.05 µM and 1.32 µM in the assay on OVCAR-3 ovarian.
In the case of `COc1cc2c(/C=N\N=C(N)N)c(Cl)[nH]c2cc1C`, the GI50 is 10.2 µM in the assay with SF-539 CNS; 11.1 µM with ACHN renal; 1.65 µM in the assay with SN12C renal; 10.5 µM with NCI-H226 lung; 17.5 µM in the assay on IGROV1 ovarian; 12.5 µM in the assay on M14 melanoma. In addition, the results for the GI50 in the assay on UACC-62 melanoma and in the assay on OVCAR-3 ovarian were 12 µM and 5.49 µM, respectively. The TGI in the assay on SF-539 CNS came out at 25 µM; in the assay with ACHN renal, 23.6 µM; with SN12C renal, 11.5 µM; in the assay with NCI-H226 lung, 26.3 µM; in the assay on IGROV1 ovarian it was 49.9 µM; in the assay on M14 melanoma it was 25.2 µM. For the same compound, the figures for the TGI with UACC-62 melanoma and in the assay with OVCAR-3 ovarian were 24.6 µM and 20.6 µM, respectively.
`O=C(c1ccc2ccccc2c1O)N1CCCCC1`: the TGI in the assay on SNB-75 CNS, in the assay on HOP-62 NSCLC, in the assay on SF-539 CNS, in the assay with ACHN renal, in the assay with NCI-H226 lung and in the assay with IGROV1 ovarian was > 100 µM in each case. Moreover, the TGI with M14 melanoma and in the assay on UACC-62 melanoma was > 100 µM throughout.
For the compound `CCOc1ccccc1NC(=O)CCC(=O)OC`, the TGI in the assay with SNB-75 CNS, with HOP-62 NSCLC, with ACHN renal, with SN12C renal, with NCI-H226 lung and with IGROV1 ovarian was > 100 µM each time. The TGI in the assay on M14 melanoma, with UACC-62 melanoma and in the assay with OVCAR-3 ovarian was > 100 µM throughout.
Take `NNC(=S)N/N=C(\CCCC(=O)NCCc1ccccc1)CC(=O)c1ccccc1`: the TGI in the assay on HOP-62 NSCLC, in the assay with SF-539 CNS, in the assay on ACHN renal, in the assay with SN12C renal, in the assay with IGROV1 ovarian and in the assay with M14 melanoma was > 100 µM in each case. The TGI with UACC-62 melanoma and in the assay on OVCAR-3 ovarian was > 100 µM each time.
As for `COc1cc(C(=O)OCCCCCCCCCCC[P+](c2ccccc2)(c2ccccc2)c2ccccc2)ccc1O`, the GI50 in the assay on ACHN renal is 1.46 µM; in the assay on M14 melanoma, 0.349 µM; in the assay with UACC-62 melanoma, 0.768 µM. The values for the TGI with ACHN renal, with M14 melanoma and in the assay with UACC-62 melanoma were 2.99 µM, 1.45 µM and 2.44 µM, respectively.
Regarding `Nc1ncnc2c1ncn2C1OC(COP(=O)(O)CP(=O)(O)O)C(O)C1O` (centres undefined), the TGI in the assay on SNB-75 CNS, in the assay with HOP-62 NSCLC, with SF-539 CNS, in the assay with ACHN renal, in the assay with SN12C renal and in the assay with NCI-H226 lung was > 100 µM throughout. Also, the TGI in the assay on IGROV1 ovarian, in the assay on M14 melanoma and in the assay on UACC-62 melanoma was > 100 µM in each case.
For `O=C1OC(=O)c2c1c(-c1ccccc1)cn2-c1ccc(Cl)cc1`, the TGI in the assay with SNB-75 CNS, in the assay on HOP-62 NSCLC, with SF-539 CNS, with ACHN renal, in the assay on SN12C renal and in the assay on NCI-H226 lung was > 100 µM in each case. The TGI in the assay with IGROV1 ovarian, in the assay with M14 melanoma and in the assay on OVCAR-3 ovarian was > 100 µM in each case.
With `O=[As](O)(O)c1ccc(NCc2ccccc2)cc1`, the TGI in the assay on SNB-75 CNS, in the assay on HOP-62 NSCLC, in the assay on ACHN renal, in the assay with SN12C renal, in the assay on NCI-H226 lung and in the assay on IGROV1 ovarian was > 100 µM in each case. Also, the TGI in the assay on M14 melanoma, in the assay with UACC-62 melanoma and with OVCAR-3 ovarian was > 100 µM throughout.
As to `O=C(O)CN(c1ccccc1)S(=O)(=O)c1ccc(NC(=O)c2ccccc2)cc1`, the TGI in the assay with SNB-75 CNS, in the assay with SF-539 CNS, with ACHN renal, with SN12C renal, with IGROV1 ovarian and with M14 melanoma was > 100 µM in each case. For the same compound, the TGI with UACC-62 melanoma is > 100 µM.
Turning to `CN1CCc2cc3c(cc2C1O)OCO3` (centres undefined), the TGI was 17.9 µM and > 100 µM in the assay on SNB-75 CNS; 36.2 µM and > 100 µM in the assay with HOP-62 NSCLC; 29.4 µM and > 100 µM with SF-539 CNS; 36.2 µM and > 100 µM with ACHN renal; 41.4 µM and > 100 µM in the assay on SN12C renal; 33.2 µM and > 100 µM in the assay with IGROV1 ovarian. In addition, the TGI in the assay on M14 melanoma was 37.8 µM and > 100 µM. Further, the GI50 with HOP-62 NSCLC was 18 µM and > 100 µM; with SF-539 CNS, 12.8 µM and > 100 µM; with ACHN renal, 19.2 µM and > 100 µM; in the assay on SN12C renal, 20.4 µM and > 100 µM; with IGROV1 ovarian it was 10.7 µM and > 100 µM; in the assay on M14 melanoma it was 16.7 µM and > 100 µM.
Regarding `COC(=O)Cc1cc(OC)c(OC)cc1Br`, the TGI in the assay on SNB-75 CNS, with HOP-62 NSCLC, in the assay with ACHN renal, in the assay with SN12C renal, with NCI-H226 lung and with M14 melanoma was > 100 µM each time. For the same compound, the TGI with UACC-62 melanoma and in the assay with OVCAR-3 ovarian was > 100 µM throughout.
